How the values were obtained:
[1] = system: coaggregation of Fusobacterium nucleatum ssp. polymorphum ATCC10953 with Streptococcus sobrinus B13; experiment: Coaggregation inhibition test (precipitation of a clump); assay type: cell-based; set-up: key to Coaggregation inhibition effect: the mixture in which no precipitation of a clump was observed was evaluated that test substance had a coaggregation inhibition effect (+); the mixture in which precipitation was observed was evaluated that the test substance had no coaggregation inhibition effect (−); conditions: 200 μL of 2% (wt/vol %) test substance solution, room temperature for 30 minutes; for precipitation due to coaggregation: result in words
Method: (§1) Streptococcus sobrinus B13 was used as cariogenic bacteria, while Fusobacterium nucleatum ssp. polymorphum ATCC10953 was used as bacteria of the genus Fusobacterium.
After inoculation of Streptococcus sobrinus into a brain heart infusion broth, it was cultured at 37° C. for 24 hours under an anaerobic condition. Fusobacterium nucleatum ssp. polymorphum was, on the other hand, inoculated into a GAM bouillon medium and then cultured at 37° C. for 48 hours under an anaerobic condition. After completion of the cultivation, bacteria were collected by centrifugal separation and washed twice with a coaggregation buffer (1 mM tris(hydroxymethyl)aminomethane, 0.1 mM calcium chloride, 0.1 mM magnesium chloride, and 0.15 M sodium chloride). After washing, Fusobacterium nucleatum and Streptococcus sobrinus were adjusted with the coaggregation buffer to give a turbidity (OD: UV-1600, UV-Visible spectrophotometer (product of Shimadzu Corporation)), at wavelength of 600 nm, of 2.0, whereby bacteria suspensions were prepared. Test substances such as a compound represented by the formula (A) were adjusted in advance with the coaggregation buffer to give a concentration of 2% (wt/vol %). Galactose laurate was synthesized in a known manner (Patent Document 2: JP-A-2000-159675). As the other test substances, lactose, galactose, sucrose, glucose, and fructose (each, product of Wako Pure Chemicals), and β-lauryl glucoside, β-lauryl maltoside and sucrose monolaurate (each, product of Dojindo Laboratories) were employed. In the coaggregation test, 400 μL of the suspension of Fusobacterium nucleatum, 200 μL of the suspension of Streptococcus sobrinus, and 200 μL of the 2% (wt/vol %) solution of the test substance were mixed successively by using a No. 2 RIA tube (product of Asahi Techno Glass).

[2] = system: coaggregation of Fusobacterium nucleatum ssp. polymorphum ATCC10953 with Streptococcus sobrinus B13; experiment: Percent coaggregation by turbidity change (Vmax, OD 600 nm); assay type: cell-based; conditions: final concentration 10% (wt/vol %); Vmax of coaggregation buffer control = 100%
Method: as §1
The cariogenic bacteria and bacteria of the genus Fusobacterium were cultured on a brain heart infusion broth (product of Becton, Dickinson and Company) and a GAM broth (product of Nissui Pharmaceutical), respectively, under the conditions of 37° C., and 10% CO2, 10% H2, and 80% N2 during from the logarithmic phase to stationary phase. The respective bacteria were collected by centrifugal separation at 5,000 rpm for 5 minutes. After centrifugal washing (for 5 minutes at 5,000 rpm) three times with a coaggregation buffer (1 mM tris(hydroxymethyl)aminomethane, 0.1 mM calcium chloride, 0.1 mM magnesium chloride, and 0.15 M sodium chloride), they were each adjusted to have a turbidity OD at 600 nm of 2.0.
After addition of 60 μL of each of mannitol, palatinit, erythritol, xylitol, sorbitol and lactitol (product of Wako Pure Chemicals) to a 96-well microtiterplate to give the final concentration of 10% (wt/vol %), 30 μL of the bacteria of the genus Fusobacterium was dispensed and stirred, followed by the addition of 30 μL of the cariogenic bacteria. Then, by using a microplate reader (product of Molecular Devices), the turbidity (OD at 600 nm) was measured at one-minute intervals for 30 minutes and a change ratio Vmax (mOD/min) of the turbidity was calculated. Using the Vmax of a similar mixture containing the coaggregation buffer instead of the test substance as control (100%), the percent coaggregation was calculated. Based on a value thus obtained, the coaggregation reaction was measured.

For O=C(CO)[C@@H](O)[C@H](O)[C@H](O)CO [Fructose, fructose], the Coaggregation inhibition effect [1] was “−” and the “precipitation due to coaggregation” value [1] was “obvious precipitation due to coaggregation is observed”.
For O=C[C@H](O)[C@@H](O)[C@@H](O)[C@H](O)CO [Galactose, galactose], the Coaggregation inhibition effect [1] was “+” and the “precipitation due to coaggregation” value [1] was “no precipitation due to coaggregation is observed”.
With OC[C@H]1O[C@@H](O[C@H]2[C@H](O)[C@@H](O)C(O)O[C@@H]2CO)[C@H](O)[C@@H](O)[C@H]1O (stereo partly shown) [Lactose, lactose] the Coaggregation inhibition effect [1] was “+” and the “precipitation due to coaggregation” value [1] was “no precipitation due to coaggregation is observed”.
In the case of OC[C@H]1O[C@@](CO)(O[C@H]2O[C@H](CO)[C@@H](O)[C@H](O)[C@H]2O)[C@@H](O)[C@@H]1O [Sucrose, sucrose], the Coaggregation inhibition effect [1] is reported as “−” and the “precipitation due to coaggregation” value [1] is reported as “obvious precipitation due to coaggregation is observed”.
OC[C@@H](O)[C@@H](O)CO [erythritol] showed a percent coaggregation [2] of 35%.
OC[C@@H](O)[C@@H](O[C@@H]1O[C@H](CO)[C@H](O)[C@H](O)[C@H]1O)[C@H](O)[C@@H](O)CO [lactitol] showed a percent coaggregation [2] of 0%.
OC[C@@H](O)[C@@H](O)[C@H](O)[C@H](O)CO [mannitol] showed a percent coaggregation [2] of 16%.
OC[C@@H](O)[C@@H](O)[C@H](O)[C@@H](O)CO [sorbitol] showed a percent coaggregation [2] of 62%.
For OC[C@@H](O)[C@H](O)[C@@H](O)CO [xylitol], the percent coaggregation [2] was 20%.
With CCCCCCCCO[C@H]1O[C@H](CO)[C@H](O)[C@H](O)[C@H]1O [α-Octyl galactoside, α-octyl galactoside] the Coaggregation inhibition effect [1] was “+” and the “precipitation due to coaggregation” value [1] was “no precipitation due to coaggregation is observed”.
For CCCCCCCCCCCCO[C@@H]1O[C@H](CO)[C@@H](O)[C@H](O)[C@H]1O [β-Lauryl glucoside, β-lauryl glucoside], the Coaggregation inhibition effect [1] was “−” and the “precipitation due to coaggregation” value [1] was “obvious precipitation due to coaggregation is observed”.
CCCCCCCCCCCCO[C@@H]1O[C@H](CO)[C@@H](O[C@H]2O[C@H](CO)[C@@H](O)[C@H](O)[C@H]2O)[C@H](O)[C@H]1O [β-Lauryl maltoside, β-lauryl maltoside] was tested, and the Coaggregation inhibition effect [1] was “−” and the “precipitation due to coaggregation” value [1] was “obvious precipitation due to coaggregation is observed”.
For CCCCCCCCCCCCOCCOCCOCCO[C@@H]1O[C@H](CO)[C@H](O)[C@H](O)[C@H]1O [β-Trioxyethylene dodecylgalactoside, β-trioxyethylene lauryl galactoside], the Coaggregation inhibition effect [1] was “+” and the “precipitation due to coaggregation” value [1] was “no precipitation due to coaggregation is observed”.
In the case of CCCCCCCCO[C@@H]1O[C@H](CO)[C@H](O)[C@H](O)[C@H]1O [β-octyl galactoside], the Coaggregation inhibition effect [1] is reported as “+” and the “precipitation due to coaggregation” value [1] is reported as “no precipitation due to coaggregation is observed”.
In the case of “Galactose laurate [Galactose monolaurate]”, the Coaggregation inhibition effect [1] is reported as “+” and the “precipitation due to coaggregation” value [1] is reported as “no precipitation due to coaggregation is observed”.
With palatinit the percent coaggregation [2] was 71%.
With sucrose monolaurate the Coaggregation inhibition effect [1] was “−” and the “precipitation due to coaggregation” value [1] was “obvious precipitation due to coaggregation is observed”.

— patent US8834852B2, “Composition for oral cavity” (Kao Corporation, priority 2004, dated 2014)
